Where two headings read alike, the source gives them in different places.
Target: T1, EBP-Ig (N-terminal 225 amino acids of the human EPO receptor joined to an Ig heavy chain) (Homo sapiens, UniProt P19235)
T1 construct: Ig heavy chain (fusion partner); made in house; host or cells: NSO cells (secreted into conditioned media)
T1 sequence (P19235 25-250 limits assumed): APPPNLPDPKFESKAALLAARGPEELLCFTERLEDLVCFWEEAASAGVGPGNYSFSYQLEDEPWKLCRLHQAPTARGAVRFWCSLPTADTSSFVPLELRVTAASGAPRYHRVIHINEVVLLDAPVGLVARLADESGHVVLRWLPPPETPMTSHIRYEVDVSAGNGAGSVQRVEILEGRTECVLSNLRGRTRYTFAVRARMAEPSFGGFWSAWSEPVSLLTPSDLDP
Assay: Inhibition of [125I]EPO binding to immobilized EBP-Ig (EPO binding protein-Ig), scintillation Flash plate competition assay
Settings: for IC30 μM (Inhibition of EPO binding to EBP-Ig): 0–500 μM test compound; for % inh @ 50 μM (Inhibition of EPO binding to EBP-Ig): 50 μM test compound, average % inhibition
Text: The interaction of biotin and streptavidin is frequently employed to capture and effectively immobilize reagents useful in assay protocols and has been employed here as a simple method to capture and immobilize EBP-Ig. EBP-Ig is initially randomly modified with an amine reactive derivative of biotin to produce biotinylated-EBP-Ig. Use of streptavidin coated plates allows the capture of the biotinylated EBP-Ig on the surface of a scintillant impregnated coated well (Flash plates, NEN-DuPont). […] The amount of light produced was quantified to estimate the amount of ligand binding. The specific assay format was suitable for the multi-well plate capacity of a Packard TopCount Microplate Scintillation counter.
Biotinylated EBP-Ig was prepared as follows. EBP-Ig (3 mL, OD280 2.9) was exchanged into 50 mM sodium bicarbonate, pH 8.5 using a Centriprep 10 ultrafiltration device. The final volume of the exchanged protein was 1.2 mL (OD280 2.6, representing about 2 mg total protein). 10 μL of a 4 mg/ml solution of NHS-LC-Biotin (Pierce) was added and the reaction mixture placed on ice in the dark for two hours. Unreacted biotin was removed by exchange of the reaction buffer into PBS in a Centriprep 10 device and the protein reagent aliquoted and stored at −70° C.
All wells were adjusted to a final DMSO concentration of 5%. […] After all additions were made, the plate was covered with an adhesive top seal and placed in the dark at room temperature overnight. The next day all liquid was aspirated from the wells to limit analyte dependent quench of the signal, and the plates were counted on a Packard TOPCOUNT Microplate Scintillation Counter. […] Corrected total binding (CTB) was calculated as: TB−NSB=CTB. […] Table 1 lists the average % inhibition, and if determined the IC50 and IC30 values for compounds of Formula I, where the compound numbers refer to the compounds in the tables accompanying the preparative examples.

[1] = read-out: % inh @ 50 μM (Inhibition of EPO binding to EBP-Ig)
[2] = read-out: IC50, μM (Inhibition of EPO binding to EBP-Ig), 0.5 nM [125I]EPO, concentration reducing corrected total binding to 50%

CC(C)(C)c1ccc(Oc2cccc(/C=C/C(=O)N(Cc3cccc(Oc4ccccc4)c3)C(CCCCN)C(=O)O)c2)cc1 (centres unmarked) [compound 288]
EPO/EBP-Ig % inh @ 50 μM (50 μM compound, Table 15): 27%

CSCC[C@H](NC/C=C/c1ccc(C(F)(F)F)cc1)C(=O)O.O=C(O)C(F)(F)F [compound 365]
EPO/EBP-Ig % inh @ 50 μM (50 μM compound): 0%

COC(=O)[C@H](COC(C)(C)C)NC/C=C/c1cccc(Oc2ccc(C(C)(C)C)cc2)c1 [compound 356]
EPO/EBP-Ig % inh @ 50 μM (50 μM compound, Table 20A): 23%

COC(=O)C(CCCCNC(=O)OC(C)(C)C)N(Cc1cccc(OCc2ccccc2)c1)Cc1cccc(OCc2ccccc2)c1 (centres unmarked) [compound 109]
EPO/EBP-Ig % inh @ 50 μM (Table 7, 50 μM): 7%

CC(C)(C)OC(=O)NCCCCC(C(=O)NCCOCCOCCNC(=O)C(CCCCNC(=O)OC(C)(C)C)N(Cc1ccc(OCc2ccccc2)cc1)Cc1ccc(OCc2ccccc2)cc1)N(Cc1ccc(OCc2ccccc2)cc1)Cc1ccc(OCc2ccccc2)cc1 (centres unmarked) [compound 260]
EPO/EBP-Ig % inh @ 50 μM (50 μM compound, Table 13): −12%

CCCCNC(=O)C(CCCCN)N(C/C=C/c1ccccc1)C/C=C/c1ccccc1 (centres unmarked) [compound 205]
EPO/EBP-Ig % inh @ 50 μM (50 μM compound, Table 10): 26%

COC(=O)C(CCC(=O)OC(C)(C)C)N(C/C=C/c1cccc(Oc2ccc(Cl)c(Cl)c2)c1)C/C=C/c1cccc(Oc2ccc(Cl)c(Cl)c2)c1 (centres unmarked) [compound 99]
EPO/EBP-Ig % inh @ 50 μM (Table 6, 50 μM): 13%

CC(=O)O.COC(=O)c1cccc(/C=C/CN[C@@H](Cc2ccccc2)C(=O)OC)c1 [compound 361]
EPO/EBP-Ig % inh @ 50 μM (50 μM compound): 24%

CC(C)(C)OC(=O)CC(C(=O)NCCCOCCOCCOCCCNC(=O)C(CC(=O)OC(C)(C)C)N(C/C=C/c1cccc(Oc2ccc(C(C)(C)C)cc2)c1)C/C=C/c1cccc(Oc2ccc(C(C)(C)C)cc2)c1)N(C/C=C/c1cccc(Oc2ccc(C(C)(C)C)cc2)c1)C/C=C/c1cccc(Oc2ccc(C(C)(C)C)cc2)c1 (centres unmarked) [compound 253]
EPO/EBP-Ig % inh @ 50 μM (50 μM compound, Table 12): −5%

O=C(O)CC(C(=O)O)N(Cc1cccc(NCc2ccc(F)cc2)c1)Cc1cccc(Oc2ccccc2)c1 (centres unmarked) [compound 70]
EPO/EBP-Ig % inh @ 50 μM (Table 4, 50 μM): −8%

CC(C)(C)OC(=O)CCC(C(=O)O)N(C/C=C/c1ccc2ccccc2c1)C/C=C/c1ccc2ccccc2c1 (centres unmarked) [compound 97]
EPO/EBP-Ig % inh @ 50 μM (Table 6, 50 μM): 14%

O=C(O)C(F)(F)F.O=C(O)CC[C@H](NC/C=C/c1cccc(Oc2cccc(C(F)(F)F)c2)c1)C(=O)O [compound 330]
EPO/EBP-Ig % inh @ 50 μM (50 μM compound, Table 19A): 12%

O=C(O)CCC(C(=O)O)N(C/C=C/c1ccc(NC(=O)c2ccc([N+](=O)[O-])cc2)cc1)Cc1ccc(OCc2ccccc2)cc1 (centres unmarked) [compound 91]
EPO/EBP-Ig % inh @ 50 μM (Table 5, 50 μM): 19%

COC(=O)C(CCCCN)N(Cc1ccc(OCc2ccccc2)cc1)Cc1cccc([N+](=O)[O-])c1 (centres unmarked) [compound 114]
IC30 μM (Inhibition of EPO binding to EBP-Ig) (0.5 nM [125I]EPO): 10 µM | inhibition at 50 µM [1]: 37% | inhibition at 50 µM (read-out: EPO/EBP-Ig % inh @ 50 μM, Table 7, 50 μM): 37%

CC(C)(C)OC(=O)CC(C(=O)NCCCCCCCCCCNC(=O)C(CC(=O)OC(C)(C)C)N(C/C=C/c1cccc(Oc2ccc(C(C)(C)C)cc2)c1)C/C=C/c1cccc(Oc2ccc(C(C)(C)C)cc2)c1)N(C/C=C/c1cccc(Oc2ccc(C(C)(C)C)cc2)c1)C/C=C/c1cccc(Oc2ccc(C(C)(C)C)cc2)c1 (centres unmarked) [compound 254]
EPO/EBP-Ig % inh @ 50 μM (50 μM compound, Table 12): −9%

O=C(O)CC(C(=O)O)N(Cc1cccc(NCc2cccc(Br)c2)c1)Cc1cccc(Oc2ccccc2)c1 (centres unmarked) [compound 67]
EPO/EBP-Ig % inh @ 50 μM (Table 4, 50 μM): −8%

COC(=O)C(CCCCNC(=O)OC(C)(C)C)N(Cc1ccc(OCc2ccccc2)cc1)Cc1ccc(OCc2ccccc2)cc1 (centres unmarked) [cpd 111, N,N-bis(4-Benzyloxybenzyl)Lys(Boc)-OMe]
EPO/EBP-Ig % inh @ 50 μM (Table 7, 50 μM): 5%

COC(=O)C(CCC(=O)O)N(C/C=C/c1ccccc1)C/C=C/c1ccccc1 (centres unmarked) [compound 92]
EPO/EBP-Ig % inh @ 50 μM (Table 6, 50 μM): 20%

Cc1ccccc1CNc1cccc(CN(Cc2cccc(Oc3ccccc3)c2)C(CC(=O)O)C(=O)O)c1 (centres unmarked) [compound 69]
EPO/EBP-Ig % inh @ 50 μM (Table 4, 50 μM): −13%

COC(=O)[C@H](CCCCNC(=O)OC(C)(C)C)NC/C=C/c1cccc(Oc2ccc(C(C)(C)C)cc2)c1 [compound 317]
EPO/EBP-Ig % inh @ 50 μM (50 μM compound, Table 18A): 13%

COc1ccc(CCNC(=O)C(CCCCNC(=O)Nc2ccccc2)N(C/C=C/c2cccc(Oc3ccccc3)c2)C/C=C/c2cccc(Oc3ccccc3)c2)cc1 (centres unmarked) [compound 228]
EPO/EBP-Ig % inh @ 50 μM (50 μM compound, Table 10): 21%

O=C(O)CC(C(=O)O)N(C/C=C/c1cccc(Oc2ccccc2)c1)Cc1cccc(Oc2ccccc2)c1 (centres unmarked) [compound 77]
IC50: 40 µM | IC30 μM (Inhibition of EPO binding to EBP-Ig) (0.5 nM [125I]EPO): 30 µM | inhibition at 50 µM [1]: 52% | inhibition at 50 µM (read-out: EPO/EBP-Ig % inh @ 50 μM, Table 5, 50 μM): 52%

COC(=O)C(CCCCN)N(Cc1ccc(OCc2ccccc2)cc1)Cc1cccc(NC(=O)c2ccc3ccccc3c2)c1 (centres unmarked) [compound 121]
IC30 μM (Inhibition of EPO binding to EBP-Ig) (0.5 nM [125I]EPO): 6 µM | % inh @ 50 μM (Inhibition of EPO binding to EBP-Ig) (0.5 nM [125I]EPO): 45% | EPO/EBP-Ig % inh @ 50 μM (Table 7, 50 μM): 45%

O=C(O)CCC(C(=O)O)N(C/C=C/c1ccc(NC(=O)C(F)(F)F)cc1)Cc1ccc(OCc2ccccc2)cc1 (centres unmarked) [compound 85]
EPO/EBP-Ig % inh @ 50 μM (Table 5, 50 μM): 20%

CC(=O)O.COC(=O)[C@H](CO)N(C/C=C/c1ccc(-c2ccccc2)cc1)C/C=C/c1ccc(-c2ccccc2)cc1 [compound 295]
EPO/EBP-Ig % inh @ 50 μM (50 μM compound, Table 16A): 10%

O=C(O)C(F)(F)F.O=C(O)[C@H](CO)NC/C=C/c1ccc(-c2ccccc2)cc1 [compound 348]
EPO/EBP-Ig % inh @ 50 μM (50 μM compound, Table 20A): 21%

CC(C)(C)OC(=O)CCC(NCC=Cc1cccc(Oc2ccccc2)c1)C(=O)O (centres unmarked) [cpd 337, N-(3-Phenoxycinnamyl)Glu(O-t-Bu)-OH]
EPO/EBP-Ig % inh @ 50 μM (50 μM compound, Table 19A): 0%

O=C(O)CCC(C(=O)NCCOCCOCCNC(=O)C(CCC(=O)O)N(Cc1cccc(NC(=O)c2ccco2)c1)Cc1cccc(Oc2ccccc2)c1)N(Cc1cccc(NC(=O)c2ccco2)c1)Cc1cccc(Oc2ccccc2)c1 (centres unmarked) [compound 248]
IC30 μM (Inhibition of EPO binding to EBP-Ig) (0.5 nM [125I]EPO): 7 µM | % inh @ 50 μM (Inhibition of EPO binding to EBP-Ig) (0.5 nM [125I]EPO): 56% | EPO/EBP-Ig % inh @ 50 μM (Table 11, 50 μM): 56% | IC50 [2]: 20 µM

NCCCCC(C(=O)NCc1ccccc1)N(CC=Cc1ccccc1)CC=Cc1ccccc1 (centres unmarked) [compound 235]
IC30 μM (Inhibition of EPO binding to EBP-Ig) (0.5 nM [125I]EPO): 20 µM | inhibition at 50 µM [1]: 49% | inhibition at 50 µM (read-out: EPO/EBP-Ig % inh @ 50 μM, 50 μM compound, Table 10): 49% | IC50 [2]: 50 µM

COC(=O)C(CCCCN)N(C/C=C/c1cccc(N)c1)C/C=C/c1cccc(N)c1 (centres unmarked) [compound 185]
EPO/EBP-Ig % inh @ 50 μM (50 μM compound, Table 9): 29%

O=C(O)CCCC(=O)NCCCCC(C(=O)NCCCCCCCCCCCCNC(=O)C(CCCCNC(=O)CCCC(=O)O)N(Cc1ccc(OCc2ccccc2)cc1)Cc1ccc(OCc2ccccc2)cc1)N(Cc1ccc(OCc2ccccc2)cc1)Cc1ccc(OCc2ccccc2)cc1 (centres unmarked) [compound 269]
IC30 μM (Inhibition of EPO binding to EBP-Ig) (0.5 nM [125I]EPO): 8 µM | IC50 [2]: 85 µM

Cc1ccc(S(=O)(=O)Nc2ccc(/C=C/CN(Cc3ccc(OCc4ccccc4)cc3)C(CCC(=O)O)C(=O)O)cc2)cc1 (centres unmarked) [compound 87]
EPO/EBP-Ig % inh @ 50 μM (Table 5, 50 μM): 23%

COC(=O)[C@H](CCCCNC(=O)OCc1ccccc1)NC/C=C/c1ccc(OC)cc1 [compound 320]
EPO/EBP-Ig % inh @ 50 μM (50 μM compound, Table 18A): 17%

CCCCNC(=O)C(CCCCNC(=O)c1ccccc1OC)N(C/C=C/c1ccccc1)C/C=C/c1ccccc1 (centres unmarked) [compound 206]
EPO/EBP-Ig % inh @ 50 μM (50 μM compound, Table 10, 50 µM): 17%

COC(=O)C(CCCCNC(=O)OCc1ccccc1)N(C/C=C/c1ccc2ccccc2c1)C/C=C/c1ccc2ccccc2c1 (centres unmarked) [compound 175]
EPO/EBP-Ig % inh @ 50 μM (50 μM compound, Table 9): 1%

NCCCCC(C(=O)NCCOCCOCCNC(=O)C(CCCCN)N(Cc1ccc(OCc2ccccc2)cc1)Cc1ccc(OCc2ccccc2)cc1)N(Cc1ccc(OCc2ccccc2)cc1)Cc1ccc(OCc2ccccc2)cc1 (centres unmarked) [compound 261]
IC30 μM (Inhibition of EPO binding to EBP-Ig) (0.5 nM [125I]EPO): 1.5 µM | EPO/EBP-Ig % inh @ 50 μM (50 μM compound, Table 13): 51% | % inh @ 50 μM (Inhibition of EPO binding to EBP-Ig) (0.5 nM [125I]EPO): 51% | IC50 [2]: 2 µM

O=C(O)CC(C(=O)O)N(Cc1cccc(NCc2ccccc2)c1)Cc1cccc(Oc2ccccc2)c1 (centres unmarked) [compound 63]
EPO/EBP-Ig % inh @ 50 μM (Table 4, 50 μM): 20%

COC(=O)C(CCC(=O)OC(C)(C)C)N(C/C=C/c1ccccc1)C/C=C/c1ccccc1 (centres unmarked) [compound 93]
EPO/EBP-Ig % inh @ 50 μM (Table 6, 50 μM): 20%

NCCCCC(C(=O)O)N(Cc1cccc(Oc2ccccc2)c1)C(=O)/C=C/c1ccc(Oc2ccccc2)cc1 (centres unmarked) [compound 289]
EPO/EBP-Ig % inh @ 50 μM (50 μM compound, Table 15): 20%

— patent publication US7153869B2, “Substituted amino acids as erythropoietin mimetics” (priority 1998, dated 2006)
